Source: patent US9890175B2, “Taxane compound, and preparation method and use thereof” (JIANGSU TASLY DIYI PHARMACEUTICAL CO., LTD., priority 2013, dated 2018)
Read-outs that look alike come from different tables or passages of the source.

What was measured:
[1] = Caco-2 cell monolayer membrane transport assay (Papp and recovery); format: in vitro ADME; settings: human; for Papp B→A: Caco-2, Papp B-A
Text: Caco-2 Cell Monolayer Membrane Transport Assay
Human-derived colorectal adenocarcinoma cell line Caco-2 cell monolayer model was used to study the bidirectional transport of the target compounds from the apical (AP) side to the basolateral (BL) side and from BL side to AP side. HPLC was used for quantitative analysis to calculate transport parameters, apparent permeability coefficient (Papp) and the efflux ratio.

A2780 ovarian cancer = assay: MTT proliferation inhibition, A2780; format: cell-based; settings: Homo sapiens, A2780, read-out: Proliferation inhibition rate, A2780 Ovarian cancer
Text: (§1) 1. Cytotoxicity Assay Using Human Tumor Cell Lines
(§2) Paclitaxel was used as the positive drug.

Hela cervical cancer = assay: MTT proliferation inhibition, HeLa; format: cell-based; settings: Homo sapiens, read-out: Proliferation inhibition rate, HeLa Uterin cancer
Text: as §1, §2

[2] = test system: MCF-7 breast cancer cells; assay: MTT proliferation inhibition, MCF-7; format: cell-based; settings: Homo sapiens, MCF7, read-out: Proliferation inhibition rate, MCF-7 Breast cancer
Text: as §1, §2

[3] = test system: NCI-H460 non-small cell lung cancer; assay: MTT proliferation inhibition, NCI-H460; format: cell-based; settings: Homo sapiens, NCI-H460, read-out: Proliferation inhibition rate, NCI-H460 Non-small cell lung cancer
Text: as §1, §2

A375 melanoma = assay: MTT proliferation inhibition, A375; format: cell-based; settings: Homo sapiens, A-375, read-out: Proliferation inhibition rate, A375 Melanoma
Text: as §1, §2

HT-29 colon cancer = assay: MTT proliferation inhibition, HT-29; format: cell-based; settings: Homo sapiens, HT-29, read-out: Proliferation inhibition rate, HT29 Colon cancer
Text: as §1, §2

HL-60 leukemia = assay: MTT proliferation inhibition, HL-60; format: cell-based; settings: Homo sapiens, HL-60, read-out: Proliferation inhibition rate, HL60 Leukemia
Text: as §1, §2

Du145 prostate cancer = assay: MTT proliferation inhibition, Du145; format: cell-based; settings: Homo sapiens, DU-145, read-out: Proliferation inhibition rate, DU145 Prostate cancer
Text: as §1, §2

[4] = test system: MDA-MB-436 breast cancer cells; assay: MTT proliferation inhibition, MDA-MB-436; format: cell-based; settings: Homo sapiens, MDA-MB-436, read-out: Proliferation inhibition rate, MDA-MB-436 Breast cancer
Text: as §1, §2

LN-18 = assay: MTT proliferation inhibition, LN-18; format: cell-based; settings: Homo sapiens, LN-18, read-out: Proliferation inhibition rate, LN-18 Gastric canser
Text: as §1, §2

BGC-823 gastric cancer = assay: MTT proliferation inhibition, BGC-823; format: cell-based; settings: Homo sapiens, BGC-823, read-out: Proliferation inhibition rate, BGC-823 Gastric cancer
Text: as §1, §2

[5] = test system: A549 non-small cell lung cancer; assay: MTT proliferation inhibition, A549; format: cell-based; settings: Homo sapiens, A549, read-out: Proliferation inhibition rate, A549 Non-small cell lung cancer
Text: as §1, §2

B16 melanoma = assay: MTT proliferation inhibition, B16; format: cell-based; settings: B16, read-out: Proliferation inhibition rate, B16 Melanoma
Text: as §1, §2

HCT 116 colon cancer = assay: MTT proliferation inhibition, HCT 116; format: cell-based; settings: Homo sapiens, HCT-116, read-out: Proliferation inhibition rate, HCT 116 Colon cancer
Text: as §1, §2

K562 leukemia = assay: MTT proliferation inhibition, K562; format: cell-based; settings: Homo sapiens, K562, read-out: Proliferation inhibition rate, K562 Leukemia
Text: as §1, §2

LNCaP prostate cancer = assay: MTT proliferation inhibition, LNCaP; format: cell-based; settings: Homo sapiens, read-out: Proliferation inhibition rate, LNCaP Prostate cancer
Text: as §1, §2

[6] = test system: breast cancer cell line MCF-7; assay: IC50 on breast cancer cell line MCF-7; format: cell-based; settings: Homo sapiens, MCF7, 72 h, read-out: MCF-7 (IC50, nM)
Experimental: From the activity evaluation data of the above-mentioned preliminary screen, it can be seen that the series of taxanes derivatives synthesized in the present invention have activity. Afterward, the compounds are investigated to examine their IC50 values on breast cancer cell line MCF-7. […] Experiments for each compound were independently repeated for three times and multiple holes were used in each experiment. The exposure time of drugs was 72 hours.

[7] = Caco-2, Recovery rate in mass, Mean
[8] = Caco-2, Recovery rate in mass, Sample-01
[9] = Caco-2, Recovery rate in mass, Sample-02
[10] = Caco-2, Caco-2, A-B, Mean, read-out: Recovery rate in mass, Mean
[11] = Caco-2, Caco-2, A-B, Sample-01, read-out: Papp A-B, Sample-01
[12] = Caco-2, Caco-2, A-B, Sample-01, read-out: Recovery rate in mass, Sample-01
[13] = Caco-2, Caco-2, A-B, Sample-02, read-out: Papp A-B, Sample-02
[14] = Caco-2, Caco-2, A-B, Sample-02, read-out: Recovery rate in mass, Sample-02

SMILES | recovery [1, 7] [%] | recovery [1, 8] [%] | recovery [1, 9] [%] | inhibition at 1 µM (A2780 ovarian cancer) [%] | inhibition at 1 µM (Hela cervical cancer) [%] | inhibition at 1 µM [2] [%] | inhibition at 1 µM [3] [%] | inhibition at 1 µM (A375 melanoma) [%] | inhibition at 1 µM (HT-29 colon cancer) [%] | inhibition at 1 µM (HL-60 leukemia) [%] | inhibition at 1 µM (Du145 prostate cancer) [%] | inhibition at 1 µM [4] [%] | inhibition at 1 µM (LN-18) [%] | inhibition at 1 µM (BGC-823 gastric cancer) [%] | inhibition at 1 µM [5] [%] | inhibition at 1 µM (B16 melanoma) [%] | inhibition at 1 µM (HCT 116 colon cancer) [%] | inhibition at 1 µM (K562 leukemia) [%] | inhibition at 1 µM (LNCaP prostate cancer) [%] | IC50 [6] [nM] | also measured
CC[C@H]1OC(=O)[C@H](C)[C@@H](O[C@H]2C[C@@](C)(OC)[C@@H](O)[C@H](C)O2)[C@H](C)[C@@H](O[C@@H]2O[C@H](C)C[C@H](N(C)C)[C@H]2O)[C@](C)(O)C[C@@H](C)C(=O)[C@H](C)[C@@H](O)[C@]1(C)O [Erythromycin, reference compound] | 99 | 99.6 | 98.5 |  |  |  |  |  |  |  |  |  |  |  |  |  |  |  |  |  | 
COCCc1ccc(OCC(O)CNC(C)C)cc1 (centres unmarked) [Metoprolol, reference compound] | 99 | 103 | 95.5 |  |  |  |  |  |  |  |  |  |  |  |  |  |  |  |  |  | Papp A→B ([1]; Caco-2, Papp A-B, Mean): 27.2 ×10⁻⁶ cm/s; Papp A→B ([1]; Caco-2, Papp A-B, Sample-01): 28.1 ×10⁻⁶ cm/s; Papp A→B ([1]; Caco-2, Papp A-B, Sample-02): 26.2 ×10⁻⁶ cm/s; Papp B→A ([1]; Mean): 22.7 ×10⁻⁶ cm/s; Papp B→A ([1]; Sample-01): 22.4 ×10⁻⁶ cm/s; Papp B→A ([1]; Sample-02): 23 ×10⁻⁶ cm/s
CO[C@H]1C(=O)[C@]2(C)[C@@H](OC)C[C@H]3OC[C@@]3(OC(C)=O)[C@H]2[C@H](OC(=O)c2ccccc2)[C@]23OC(=O)O[C@H]2[C@H](OC(=O)[C@H](O)[C@@H](NC(=O)c2ccccc2)c2ccccc2)C(C)=C1C3(C)C [PCMI-02] |  |  |  | 94.7 | 98.2 | 93.5 | 82.2 | 89.8 | 89 | 95.9 | 84.7 | 82.6 | 96.6 | 94.2 | 79.6 | 84.1 | 66.4 | 94.7 | 83.7 | 6.93 ± 0.12 | recovery [1, 10]: 50.8%; Papp A→B [1, 11]: 1.5 ×10⁻⁶ cm/s; recovery [1, 12]: 44.1%; Papp A→B [1, 13]: 1.47 ×10⁻⁶ cm/s; recovery [1, 14]: 57.4%
CO[C@H]1C(=O)[C@]2(C)[C@@H](OC)C[C@H]3OC[C@@]3(OC(C)=O)[C@H]2[C@H](OC(=O)c2ccccc2)[C@]23OC(=O)O[C@H]2[C@H](OC(=O)[C@H](O)[C@H](CC(C)C)NC(=O)OC(C)(C)C)C(C)=C1C3(C)C [PCMI-05] |  |  |  | 94.6 | 99.5 | 84.9 | 82 | 87.9 | 87.9 | 97.2 | 83.9 | 74.5 | 93.3 | 90.9 | 67.8 | 71.5 | 58.7 | 91.4 | 81.6 | 4.04 ± 0.18 | recovery [1, 10]: 54.7%; Papp A→B [1, 11]: 2.59 ×10⁻⁶ cm/s; recovery [1, 12]: 58.1%; Papp A→B [1, 13]: 2.56 ×10⁻⁶ cm/s; recovery [1, 14]: 51.3%
